PMC10840383, “Clinical features, functional consequences, and rescue pharmacology of missense GRID1 and GRID2 human variants” (Human Molecular Genetics, 2023)

Target: T1, GluD2-A654T-R710W (Rattus norvegicus, UniProt Q63226, A654T/R710W)
T1 construct: expressed in transfected cells; host or cells: Xenopus laevis oocytes injected with cRNA
T1 sequence (Q63226 24-1007 A654T/R710W): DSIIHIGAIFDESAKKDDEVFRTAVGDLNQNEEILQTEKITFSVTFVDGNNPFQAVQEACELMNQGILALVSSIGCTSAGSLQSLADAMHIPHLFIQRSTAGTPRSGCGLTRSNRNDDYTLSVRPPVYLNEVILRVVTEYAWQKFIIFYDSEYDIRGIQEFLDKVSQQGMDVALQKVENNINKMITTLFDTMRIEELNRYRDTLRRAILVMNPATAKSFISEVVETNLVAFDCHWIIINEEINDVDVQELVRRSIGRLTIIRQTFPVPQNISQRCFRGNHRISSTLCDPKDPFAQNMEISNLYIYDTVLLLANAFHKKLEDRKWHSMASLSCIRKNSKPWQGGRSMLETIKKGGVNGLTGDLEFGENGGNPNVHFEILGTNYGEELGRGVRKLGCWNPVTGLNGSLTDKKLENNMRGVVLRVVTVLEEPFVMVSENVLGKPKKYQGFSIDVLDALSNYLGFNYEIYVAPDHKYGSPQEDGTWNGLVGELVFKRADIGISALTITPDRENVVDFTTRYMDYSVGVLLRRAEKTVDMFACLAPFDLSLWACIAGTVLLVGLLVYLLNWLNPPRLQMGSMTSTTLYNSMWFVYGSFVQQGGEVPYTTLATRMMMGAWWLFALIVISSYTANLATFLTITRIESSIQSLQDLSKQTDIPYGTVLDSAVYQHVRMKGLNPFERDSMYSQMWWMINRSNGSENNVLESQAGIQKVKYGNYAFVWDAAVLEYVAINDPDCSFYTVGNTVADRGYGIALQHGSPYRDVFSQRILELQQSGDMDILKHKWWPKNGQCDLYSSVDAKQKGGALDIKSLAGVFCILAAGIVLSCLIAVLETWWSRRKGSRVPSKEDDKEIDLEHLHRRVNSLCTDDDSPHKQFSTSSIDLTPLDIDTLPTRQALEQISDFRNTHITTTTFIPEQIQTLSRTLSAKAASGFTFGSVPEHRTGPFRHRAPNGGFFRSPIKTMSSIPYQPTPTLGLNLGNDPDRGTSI
Assay: TEVC of constitutive current, Xenopus oocytes expressing GluD2-A654T-R710W
Assay type: cell-based
Source text: Human GluD1 (GRID1) and rat GluD2 (Grid2) cDNAs were introduced into the pGEM-HE and pCI-neo vectors. GRID1 (NM_017551.3) gene fragments were synthesized by Integrated DNA Technologies and cloned into empty vectors using InFusion cloning (Clontech). […] However, rat and human GluD2-encoding cDNA are identical in the M3 domain in which many of the variants we studied reside (see Supplementary Fig. S1). The full open reading frame for both constructs were verified by Sanger sequencing (Eurofins) and the full plasmid sequence was verified by whole plasmid sequencing (plasmidsaurus). Variant cDNA changes identified in patients were introduced into the cloned human GRID1 (NM_017551.3) in pGEM-HE and cloned rat Grid2 cDNA sequence (NM_024379.1) in pGEM-HE vector using Quikchange Lightning (Agilent) protocol according to the manufacturer’s instructions. Vectors were linearized and cRNA was synthesized using T7 RNA mMESSAGE kit (Invitrogen).
Xenopus laevis oocytes were prepared from ovaries purchased from Xenopus 1 (Dexter, MI) as previously described, [68] and incubated at 16°C in culture Barth’s solution (in mM) 88 NaCl, 2.4 NaHCO3, 1 KCl, 0.33 Ca(NO3)2, 0.41 CaCl2, 0.82 MgSO4, 10 HEPES, pH 7.4 with NaOH, supplemented with 1 U/ml penicillin and 1 μg/ml streptomycin. Oocytes were injected with approximately 5–40 ng RNA per oocyte and then incubated at 16–19°C for 1–3 days in culture Barth’s solution. […] Two-electrode voltage clamp (TEVC) recordings were performed as previously described. Unless otherwise specified, extracellular solution contained (in mM) 90 NaCl, 3 KCl, 0.5 BaCl2, 0.01 EDTA, 10 HEPES, and was brought to pH 7.4 with NaOH. The oocytes were placed in a dual track recording chamber and gravity perfused with solution exchange controlled via a computer-driven 8-valve positioner (Digital MVP Valve). […] Recording electrodes were filled with 0.3 M KCl, and currents were recorded with membrane voltage held at −40 mV. To establish constitutive activity of recombinant receptors when compared to wild type receptors, we used the oocyte recording solution described above, but with 90 mM N-methyl-D-glucamine (NMDG) chloride replacing 90 mM NaCl. […] For Ca^2+ concentration-response curves, choline chloride was used to maintain equimolar concentrations of Cl^− ions in the extracellular solution across the changing concentrations of calcium chloride. All compounds used in this study for concentration-response oocyte recordings were dissolved in deionized water as 50–100 mM stock solutions. In some rescue pharmacology experiments, we substituted 1 mM CaCl2 for 0.5 mM BaCl2 to evaluate Ca^2+-dependent control of receptor responses.

SMILES | D-serine % Max (NMDG+ − Na+) Mean ± SEM (percent of constitutive leak current (NMDG+/Na+ difference current)) | Effect on constitutive current, in words (compared to GluD2-A654T controls) | Ca2+ % Max (NMDG+ − Na+) Mean ± SEM (normalized to NMDG+ − Na+ difference current) | EC50 (potentiation of constitutive current, read-out: Ca2+ EC50 [95% CI]) [µM] | Ca2+ EC50 A654T/EC50 variant (ratio)
N[C@H](CO)C(=O)O [D-serine] | 42 ± 3.5 (14) % | – | – | – | –
[Ca+2] [Ca^2+] | – | increased Ca^2+ potency | 245 ± 15 (9) % | 80 | 1.88
